Measurements published in ChEMBL document CHEMBL1146080, “Novel, achiral 1,3,4-benzotriazepine analogues of 1,4-benzodiazepine-based CCK(2) antagonists that display high selectivity over CCK(1) receptors” (J Med Chem, 2006).
Active and inactive are the calls of the source. No cut-off for these calls is given here.

Experiments:
[1] = target: T1, Gastrin/cholecystokinin type B receptor (Rattus norvegicus, UniProt P30553); test: Affinity for CCK2 receptor assessed by inhibition of pentagastrin-stimulated acid secretion in perfused rat stomach; format: functional, tissue-based; conditions: read-out: pA2 (converted)
T1 sequence (P30553 whole entry): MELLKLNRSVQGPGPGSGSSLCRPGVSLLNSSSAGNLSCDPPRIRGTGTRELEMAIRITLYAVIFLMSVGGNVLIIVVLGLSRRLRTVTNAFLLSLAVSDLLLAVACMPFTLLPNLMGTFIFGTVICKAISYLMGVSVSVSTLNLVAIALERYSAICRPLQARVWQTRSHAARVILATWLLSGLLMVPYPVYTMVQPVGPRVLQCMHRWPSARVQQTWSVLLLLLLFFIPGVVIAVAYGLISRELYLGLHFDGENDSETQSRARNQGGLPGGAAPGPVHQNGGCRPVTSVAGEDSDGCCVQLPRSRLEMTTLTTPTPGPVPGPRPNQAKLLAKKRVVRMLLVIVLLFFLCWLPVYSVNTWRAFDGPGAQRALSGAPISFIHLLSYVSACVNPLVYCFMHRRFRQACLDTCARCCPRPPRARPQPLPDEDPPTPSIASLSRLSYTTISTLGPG

[2] = target: T2, Gastrin/cholecystokinin type B receptor (Homo sapiens, UniProt P32239); test: Displacement of [125I]BH-CCK-8S from human recombinant CCK2 receptor expressed in NIH3T3 cells; format: cell-based
T2 sequence (P32239 whole entry): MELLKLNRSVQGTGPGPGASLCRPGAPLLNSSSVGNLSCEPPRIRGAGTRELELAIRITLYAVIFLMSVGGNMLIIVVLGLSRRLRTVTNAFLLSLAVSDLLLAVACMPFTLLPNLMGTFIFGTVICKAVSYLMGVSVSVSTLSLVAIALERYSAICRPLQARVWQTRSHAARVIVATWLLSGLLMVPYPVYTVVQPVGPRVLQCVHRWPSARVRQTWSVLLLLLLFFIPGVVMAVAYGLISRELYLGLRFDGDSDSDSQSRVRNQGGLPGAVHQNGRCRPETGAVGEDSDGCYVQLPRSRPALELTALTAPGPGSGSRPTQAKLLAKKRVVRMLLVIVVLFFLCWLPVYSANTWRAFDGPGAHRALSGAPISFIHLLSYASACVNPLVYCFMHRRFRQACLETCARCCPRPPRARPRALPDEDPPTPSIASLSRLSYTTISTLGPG

[3] = target: T3, Cholecystokinin receptor type A (Homo sapiens, UniProt P32238); test: Displacement of [3H]L-364718 from human recombinant CCK1 receptor expressed in PC3 cell line; format: cell-based, PC-3
T3 sequence (P32238 whole entry): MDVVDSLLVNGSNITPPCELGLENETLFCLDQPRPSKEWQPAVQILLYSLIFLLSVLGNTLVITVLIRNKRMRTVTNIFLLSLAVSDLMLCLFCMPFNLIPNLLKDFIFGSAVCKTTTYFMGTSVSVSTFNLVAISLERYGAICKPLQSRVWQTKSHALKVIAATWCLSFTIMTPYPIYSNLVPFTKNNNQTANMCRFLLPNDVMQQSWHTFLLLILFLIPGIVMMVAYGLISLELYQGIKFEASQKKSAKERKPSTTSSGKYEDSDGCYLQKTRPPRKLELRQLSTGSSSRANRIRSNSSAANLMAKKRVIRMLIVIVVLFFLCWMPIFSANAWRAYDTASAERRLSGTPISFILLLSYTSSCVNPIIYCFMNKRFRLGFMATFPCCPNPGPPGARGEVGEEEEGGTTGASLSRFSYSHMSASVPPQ

[4] = target: T3, Cholecystokinin receptor type A; test: Displacement of [3H]L-364718 from human recombinant CCK1 receptor expressed in CHO cell line; format: cell-based
[5] = target: T4, Cholecystokinin receptor type A (Homo sapiens) (UniProt P32238); test: Inhibition of [3H]L-364718 binding to human recombinant CCK1 receptor expressed in CHO cell line at 10 uM; format: cell-based
T4 sequence (whole entry): T3 sequence (P32238 whole entry)

[6] = target: T5, Gastrin/cholecystokinin type B receptor (Rattus norvegicus) (UniProt P30553); test: Affinity for CCK2 receptor assessed by inhibition of pentagastrin-stimulated acid secretion in perfused rat stomach at 1 uM; format: functional, tissue-based
T5 sequence (whole entry): T1 sequence (P30553 whole entry)

[7] = target: T4, Cholecystokinin receptor type A (Homo sapiens); test: Inhibition of [3H]L-364718 binding to human recombinant CCK1 receptor expressed in PC3 cell line at 10 uM; format: cell-based; conditions: PC-3
[8] = target: T6, Gastrin/cholecystokinin type B receptor (Canis lupus familiaris, UniProt P30552); test: Binding affinity to canine CCK2 receptor
T6 sequence (P30552 whole entry): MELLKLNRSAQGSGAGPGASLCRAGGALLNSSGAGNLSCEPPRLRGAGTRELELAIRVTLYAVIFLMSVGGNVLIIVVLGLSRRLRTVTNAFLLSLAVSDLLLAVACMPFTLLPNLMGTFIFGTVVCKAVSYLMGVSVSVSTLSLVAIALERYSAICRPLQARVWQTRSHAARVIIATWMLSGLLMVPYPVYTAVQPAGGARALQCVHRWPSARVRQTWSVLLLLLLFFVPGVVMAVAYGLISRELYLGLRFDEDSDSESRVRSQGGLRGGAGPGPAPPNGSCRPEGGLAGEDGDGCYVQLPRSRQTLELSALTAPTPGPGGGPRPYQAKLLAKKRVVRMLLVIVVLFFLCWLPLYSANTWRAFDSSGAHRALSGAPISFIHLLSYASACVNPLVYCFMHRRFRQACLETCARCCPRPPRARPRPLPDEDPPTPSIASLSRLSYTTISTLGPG

Row | Structure (SMILES) | Ki [2] [nM] | Ki [3] [nM] | also measured
1 | CNc1cccc(NC(=O)C[C@H]2N=C(C3CCCCC3)c3ccccc3N(CC(=O)C(C)(C)C)C2=O)c1 | 13.2 | 724 | Kb [1]: 28.8 nM
2 | CC(C)(C)C(=O)CN1C(=O)N(CC(=O)Nc2cccc(O)c2)N=C(C2CCCCC2)c2ccccc21 | 13.2 |  | Ki [4]: 1510 nM
3 | CC(C)(C)C(=O)CN1C(=O)N(CC(=O)Nc2cccc(-n3ccnc3)c2)N=C(C2CCCCC2)c2ccccc21 | 9.12 |  | inhibition [5]: 57%
4 | CC(C)(C)C(=O)CN1C(=O)N(CC(=O)Nc2cccc(N)c2)N=C(C2CCCCC2)c2ccccc21 | 26.9 |  | inhibition [5]: 40%
5 | CC(C)(C)C(=O)CN1C(=O)N(CC(=O)Nc2cccc(CO)c2)N=C(C2CCCCC2)c2ccccc21 | 15.1 | 5890 | 
6 | CNCCN(C)c1cccc(NC(=O)CN2N=C(C3CCCCC3)c3ccccc3N(CC(=O)C(C)(C)C)C2=O)c1 | 29.5 |  | Ki [4]: 8710 nM
7 | Cc1cccc(NC(=O)CN2N=C(C3CCCCC3)c3ccccc3N(CC(=O)C(C)(C)C)C2=O)c1 | 8.91 |  | pA2 [6]: inactive; inhibition [7]: 27%
8 | CC(C)(C)C(=O)CN1C(=O)N(CC(=O)Nc2cccc(C(=O)O)c2)N=C(C2CCCCC2)c2ccccc21 | 5.13 | 11200 | Kb [1]: 0.977 nM; Ki [8]: 12.3 nM
9 | CNc1cccc(NC(=O)CN2N=C(c3ccccn3)c3ccccc3N(CC(=O)N3CCCC3)C2=O)c1 | 2510 |  | 
10 | CN(C)c1cccc(NC(=O)CN2N=C(C3CCCCC3)c3ccccc3N(CC(=O)C(C)(C)C)C2=O)c1 | 6.03 |  | inhibition [7]: 16%
11 | CNc1cccc(NC(=O)N[C@@H]2N=C(c3ccccn3)c3ccccc3N(CC(=O)C(C)(C)C)C2=O)c1 [NETAZEPIDE] | 0.138 | 30.2 | Kb [1]: 0.0794 nM
12 | CC(C)(C)C(=O)CN1C(=O)N(CC(=O)Nc2cccc(N3CCCC3)c2)N=C(C2CCCCC2)c2ccccc21 | 15.8 | > 10000 | 
13 | CNc1cccc(NC(=O)C[C@@H]2N=C(C3CCCCC3)c3ccccc3N(CC(=O)C(C)(C)C)C2=O)c1 | 6.03 | 1170 | Kb [1]: 28.2 nM
14 | CNc1cccc(NC(=O)CN2N=C(C3CCCCC3)c3ccccc3N(CC(=O)C(C)(C)C)C2=O)c1 | 7.94 | > 10000 | 
15 | CNc1cccc(NC(=O)CN2N=C(c3ccccc3)c3ccccc3N(CC(=O)C(C)(C)C)C2=O)c1 | 74.1 |  | inhibition [7]: 21%
16 | CNc1cccc(NC(=O)CN2N=C(c3ccccn3)c3ccccc3N(CC(=O)C(C)(C)C)C2=O)c1 | 195 |  | Kb [1]: 224 nM; inhibition [7]: 22%
17 | CCOCCNc1cccc(NC(=O)CN2N=C(C3CCCCC3)c3ccccc3N(CC(=O)C(C)(C)C)C2=O)c1 | 44.7 | > 10000 | 
18 | Cc1cccc(NC(=O)N[C@@H]2N=C(c3ccccc3)c3ccccc3N(C)C2=O)c1 [L-365260] |  | 174 | 
19 | CC(C)(C)C(=O)CN1C(=O)N(CC(=O)Nc2cccc(N3CCOCC3)c2)N=C(C2CCCCC2)c2ccccc21 | 16.6 |  | inhibition [5]: 42%
20 | CNc1cccc(NC(=O)CN2N=C(c3ccccn3)c3ccccc3N(CC(=O)c3ccccc3C)C2=O)c1 | 288 |  | 
21 | COc1cccc(NC(=O)CN2N=C(C3CCCCC3)c3ccccc3N(CC(=O)C(C)(C)C)C2=O)c1 | 5.5 |  | pA2 [6]: inactive; inhibition [5]: 46%
